Columns and labels:
Assay in all cases: relative viability (nuclei count vs DMSO), 5 days (fraction); higher = more cells survive
[1] = compound: C/C(=N\NC(=S)N1CCC1)/C2=CC=CC=N2 + CC(=O)Nc1cccc(-n2c(=O)n(C3CC3)c(=O)c3c(Nc4ccc(I)cc4F)n(C)c(=O)c(C)c32)c1 [Trametinib] (partner 0.02 µM)
How it was run: (§1)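 One day after seeding in 1536-well plates, lung cancer cell lines were dosed by pin tool. Dosing was either single-drug or a fixed anchor-drug dose plus five library-drug doses (not always all listed) in √10 steps. After 5 days, nuclei were stained in one fix-and-stain step and counted on 4× images, and relative viability is the nuclei count of treated wells over that of vehicle wells, given as the median of duplicate plates.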

[2] = compound: C/C(=N\NC(=S)N1CCC1)/C2=CC=CC=N2 + COc1cccc2cc(-c3nc([C@H]4CC[C@H](C(=O)O)CC4)n4ncnc(N)c34)[nH]c12 [OSI-027] (partner 0.5 µM)
How it was run: as §1

[3] = compound: C/C(=N\NC(=S)N1CCC1)/C2=CC=CC=N2 + N=C(N)NC(=N)NCCc1ccccc1 [Phenformin] (partner 250 µM)
How it was run: as §1

[4] = compound: C/C(=N\NC(=S)N1CCC1)/C2=CC=CC=N2 + C[C@@H](Oc1cc(-c2cnn(C3CCNCC3)c2)cnc1N)c1c(Cl)ccc(F)c1Cl [Crizotinib] (partner 1 µM)
How it was run: as §1

Cell Line | relative viability ([1]; first compound 0.05 µM) | relative viability ([1]; first compound 0.1581 µM) | relative viability ([1]; first compound 0.5 µM) | relative viability ([1]; first compound 1.581 µM) | relative viability ([1]; first compound 5 µM) | relative viability ([2]; first compound 0.05 µM) | relative viability ([2]; first compound 0.1581 µM) | relative viability ([2]; first compound 0.5 µM) | relative viability ([2]; first compound 1.581 µM) | relative viability ([2]; first compound 5 µM) | relative viability ([3]; first compound 0.05 µM) | relative viability ([3]; first compound 0.1581 µM) | relative viability ([3]; first compound 0.5 µM) | relative viability ([3]; first compound 1.581 µM) | relative viability ([3]; first compound 5 µM) | relative viability ([4]; first compound 0.05 µM) | relative viability ([4]; first compound 0.1581 µM) | relative viability ([4]; first compound 0.5 µM) | relative viability ([4]; first compound 1.581 µM) | relative viability ([4]; first compound 5 µM)
NCI-H322M | 0.451 | 0.45 | 0.424 | 0.43 | 0.423 | 0.325 | 0.351 | 0.321 | 0.288 | 0.337 | 0.332 | 0.375 | 0.249 | 0.255 | 0.311 | 0.312 | 0.988 | 0.213 | 0.247 | 0.254
NCI-H358 | 0.1 | 0.0969 | 0.116 | 0.0973 | 0.097 | 0.0802 | 0.0946 | 0.0796 | 0.0601 | 0.0821 | 0.0917 | 0.112 | 0.101 | 0.0719 | 0.107 | 0.13 | 0.157 | 0.14 | 0.102 | 0.144
NCI-H441 | 0.143 | 0.173 | 0.154 | 0.11 | 0.131 | 0.181 | 0.173 | 0.16 | 0.143 | 0.168 | 0.204 | 0.16 | 0.197 | 0.156 | 0.187 | 0.241 | 0.175 | 0.134 | 0.11 | 0.128
NCI-H460 | 0.0177 | 0.0199 | 0.0221 | 0.0121 | 0.0173 | 0.0284 | 0.0249 | 0.0234 | 0.0201 | 0.0147 | 0.0303 | 0.0322 | 0.0348 | 0.0156 | 0.0113 | 0.0177 | 0.0116 | 0.014 | 0.0184 | 0.0064
NCI-H520 | 0.101 | 0.129 | 0.118 | 0.123 | 0.159 | 0.153 | 0.192 | 0.158 | 0.169 | 0.242 | 0.149 | 0.255 | 0.168 | 0.143 | 0.251 | 0.0874 | 0.112 | 0.123 | 0.104 | 0.116
NCI-H596 | 0.613 | 0.296 | 0.293 | 0.201 | 0.239 | 0.259 | 0.253 | 0.281 | 0.226 | 0.263 | 0.301 | 0.391 | 0.324 | 0.239 | 0.259 | 0.896 | 0.302 | 0.242 | 0.251 | 0.258
NCI-H647 | 0.0951 | 0.0887 | 0.127 | 0.114 | 0.13 | 0.0818 | 0.107 | 0.109 | 0.117 | 0.0913 | 0.0392 | 0.0555 | 0.125 | 0.0761 | 0.0797 | 0.202 | 0.122 | 0.162 | 0.096 | 0.104
NCI-H650 | 0.17 | 0.207 | 0.204 | 0.169 | 0.151 | 0.162 | 0.228 | 0.194 | 0.211 | 0.198 | 0.23 | 0.277 | 0.208 | 0.247 | 0.189 | 0.187 | 0.195 | 0.221 | 0.146 | 0.171
NCI-H661 | 0.208 | 0.263 | 0.26 | 0.224 | 0.213 | 0.243 | 0.208 | 0.169 | 0.188 | 0.19 | 0.262 | 0.269 | 0.254 | 0.211 | 0.231 | 0.361 | 0.322 | 0.263 | 0.349 | 0.288
NCI-H727 | 0.361 | 0.33 | 0.358 | 0.367 | 0.318 | 0.229 | 0.258 | 0.289 | 0.244 | 0.364 | 0.29 | 0.314 | 0.341 | 0.375 | 0.382 | 0.193 | 0.145 | 0.138 | 0.179 | 0.157
NCI-H838 | 0.156 | 0.167 | 0.157 | 0.11 | 0.136 | 0.167 | 0.179 | 0.19 | 0.129 | 0.142 | 0.163 | 0.171 | 0.175 | 0.123 | 0.139 | 0.174 | 0.175 | 0.19 | 0.18 | 0.15
NCI-H1355 | 0.22 | 0.191 | 0.136 | 0.176 | 0.17 | 0.201 | 0.213 | 0.208 | 0.18 | 0.178 | 0.266 | 0.295 | 0.251 | 0.263 | 0.2 | 0.318 | 0.63 | 0.189 | 0.151 | 0.172
NCI-H1437 | 0.23 | 0.241 | 0.194 | 0.16 | 0.208 | 0.19 | 0.174 | 0.174 | 0.135 | 0.106 | 0.132 | 0.182 | 0.182 | 0.162 | 0.159 | 0.138 | 0.133 | 0.128 | 0.129 | 0.0811
NCI-H1650 | 0.131 | 0.176 | 0.143 | 0.177 | 0.146 | 0.158 | 0.216 | 0.17 | 0.152 | 0.184 | 0.122 | 0.16 | 0.194 | 0.14 | 0.18 | 0.18 | 0.199 | 0.19 | 0.153 | 0.175
NCI-H1651 | 0.209 | 0.156 | 0.137 | 0.102 | 0.0667 | 0.152 | 0.165 | 0.13 | 0.0837 | 0.093 | 0.176 | 0.169 | 0.185 | 0.0924 | 0.0954 | 0.148 | 0.132 | 0.129 | 0.112 | 0.126
NCI-H1666 | 0.545 | 0.558 | 0.495 | 0.467 | 0.5 | 0.396 | 0.41 | 0.383 | 0.354 | 0.358 | 0.467 | 0.462 | 0.419 | 0.433 | 0.361 | 0.204 | 0.221 | 0.216 | 0.195 | 0.207

— the supplement of paper PMC10307832
